Assay results reported in patent US20110046368A1, “LIGANDS OF 5-HT6 RECEPTORS, A PHARMACEUTICAL COMPOSITION, METHOD FOR THE PRODUCTION AND USE THEREOF” (priority 2006, published 2011).
pIC50: −log10 of the molar value. Like-named read-outs stand apart in the source and are kept apart here.

Target: T1, serotonin 5-HT6 receptors (Homo sapiens, UniProt P50406)
T1 construct: expressed in transfected cells; host or cells: HeLa cells (membranes)
Assay: [3H]LSD displacement from 5-HT6 receptors expressed in HeLa cell membranes
Type: binding
Settings: for Interaction efficiency of compounds of the general formula 1 with 5-HT6 receptor, %: displacement of 1.5 nM [3H]LSD, tested compounds at 10 mkM, 2 hr at 37° C.
Method: Investigation of ligand activity of azaheterocyclic compounds of the general formula 1 to 5-HT6 receptor. A focused library, including 3537 azaheterocyclic compounds of the general formula 1, their geometric isomers and pharmaceutically acceptable salts were tested for ligand activity to 5-HT6 receptor. Some examples of the tested azaheterocyclic compounds of the general formula 1 are represented in Tables 1-3, including: pyrrolo[4,3-b]indoles 1.2, 1.3 (Table 1), γ-carbolines 1.5, 1.6, 1.7 (Table 2) and azepino[4,3-b]indoles 1.10, 1.12, 1.13 (Tables 3). Ligand activity was determined by the ability of azaheterocyclic compounds of the general formula 1 to displace concurrently tritium-labelled diethyl […] of lysergic acid ([^3H]LSD), specifically bound to serotonin 5-HT6 receptors, which are expressed in HeLa cells membranes [Monsma F J Jr, Shen Y, Ward R P, Hamblin M W and Sibley D R (1993). Cloning and expression of a novel serotonin receptor with high affinity for tricyclic psychotropic drugs. Mol. Pharmacol. 43:320-3271. Cells membranes were incubated with 1.5 nM [^3H]LSD for 2 hr at 37° C. without and in the presence of tested compounds of 10 mkM concentration in the medium comprising: 50 mM Tris-HCl, pH 7.4, 150 mM NaCl, 2 mM ascorbic acid and 0.001% of bovine serum albumin. Nonspecific binding of [^3H]LSD was determined in the presence of 5 mkM of serotonin (5-HT). After incubation membrane suspensions were filtered through glass microfiber filters GF/A (Millipor, USA) and the residual radioactivity was measured by scintillation counter Microbeta 1840 (PerkinElmer). Investigated compounds interacted effectively with 5-HT6 receptor.
Measurements were carried out as it is described in example 1, except that the tested compounds were taken in various concentrations and % of displacement of [^3H]LSD was plotted as a function of compound's concentration (FIG. 1), on the basis of which IC50 (concentration of halfmaximum blocking of [^3H]LSD binding) values characterizing the seeming affinity of substituted azaheterocyclic compounds of the general formula 1 to 5-HT6 receptor were calculated (Table 5).

[1] = [3H]LSD displacement at various compound concentrations, HeLa cell membranes, read-out: IC50 (concentration of halfmaximum blocking of [3H]LSD binding), seeming affinity to 5-HT6 receptor

T1 sequence (P50406 whole entry): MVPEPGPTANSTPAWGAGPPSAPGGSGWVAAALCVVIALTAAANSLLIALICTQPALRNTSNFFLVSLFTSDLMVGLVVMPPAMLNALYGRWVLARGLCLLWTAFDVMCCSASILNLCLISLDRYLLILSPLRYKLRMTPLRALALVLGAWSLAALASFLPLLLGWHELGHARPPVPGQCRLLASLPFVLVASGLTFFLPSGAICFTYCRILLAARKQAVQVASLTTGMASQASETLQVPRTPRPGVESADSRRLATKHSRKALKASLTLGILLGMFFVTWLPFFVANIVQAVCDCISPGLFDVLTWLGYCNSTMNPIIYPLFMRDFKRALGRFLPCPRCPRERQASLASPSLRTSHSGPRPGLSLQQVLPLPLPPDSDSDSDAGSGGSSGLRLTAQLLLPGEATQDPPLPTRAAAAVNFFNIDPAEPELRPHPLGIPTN

In the case of Cc1ccc(S(=O)(=O)n2c3c(c4cc(C)ccc42)CN(C)C3)cc1 [1.2(39)], the “Interaction efficiency of compounds of the general formula 1 with 5-HT6 receptor, %” value (“Interaction efficiency of compounds … %” below) (HeLa cell membranes) was 77%.

With Cc1ccc2c(c1)[C@@H]1CN(C)C[C@@H]1N2CCc1ccc(C)nc1 [1.3(9)] the “Interaction efficiency of compounds … %” value (HeLa cell membranes) was 27%.

With CN1CCc2c(c3ccccc3n2Cc2ccccc2)C1 [1.5(18)] the “Interaction efficiency of compounds … %” value (HeLa cell membranes) was 71%.

In the case of Cc1ccc2c(c1)c1c(n2CCc2ccc(C)nc2)CCN(C)C1 [1.5(20)], the pIC50 [1] was 7.13 and the “Interaction efficiency of compounds … %” value (HeLa cell membranes) was 100%.

For Cc1ccc2c(c1)C1CN(C)CCC1N2C(=O)c1ccccc1 (centres unmarked) [1.6(6)], the “Interaction efficiency of compounds … %” value (HeLa cell membranes) was 52%.

With Cc1ccc2c(c1)C1CN(C)CCC1N2S(=O)(=O)c1nc2cc(C)nc(C)n2n1 (centres unmarked) [1.6(22)] the “Interaction efficiency of compounds … %” value (HeLa cell membranes) was 82%.

For Cc1ccc2c(c1)[C@@H]1CN(C)CC[C@@H]1N2C(=O)Nc1cccc(C(F)(F)F)c1 [1.7(1)], the “Interaction efficiency of compounds … %” value (HeLa cell membranes) was 47%.

With Cc1ccc2c(c1)c1c(n2CCc2ccccn2)CCCN(C)C1 [1.10(49)] the “Interaction efficiency of compounds … %” value (HeLa cell membranes) was 88%.

For Cc1ccc(CCn2c3c(c4cc(C)ccc42)CN(C)CCC3)nc1 [1.10(50)], the pIC50 [1] was 5.90 and the “Interaction efficiency of compounds … %” value (HeLa cell membranes) was 84%.

In the case of Cc1ccc2c(c1)c1c(n2CCc2ccncc2)CCCN(C)C1 [1.10(51)], the pIC50 [1] was 5.97 and the “Interaction efficiency of compounds … %” value (HeLa cell membranes) was 84%.

For Cc1ccc2c(c1)c1c(n2CCc2cccnc2)CCCN(C)C1 [1.10(53)], the pIC50 [1] was 6.13 and the “Interaction efficiency of compounds … %” value (HeLa cell membranes) was 79%.

With Cc1ccc2c(c1)[C@@H]1CNCCC[C@@H]1N2CCc1cccnc1 [1.12(12)] the “Interaction efficiency of compounds … %” value (HeLa cell membranes) was 84%.

With Cc1ccc2c(c1)[C@@H]1CNCCC[C@@H]1N2CCc1ccc(C)nc1 [1.12(13)] the “Interaction efficiency of compounds … %” value (HeLa cell membranes) was 76%.

Cc1ccc2c(c1)[C@@H]1CN(C)CCC[C@H]1N2CCc1ccc(C)nc1 [1.13(3)] was tested, and the “Interaction efficiency of compounds … %” value (HeLa cell membranes) was 93%.

For Cc1ccc2c(c1)[C@@H]1CN(C)CCC[C@H]1N2CCc1cccnc1 [1.13(13)], the pIC50 was 6.10 and the “Interaction efficiency of compounds … %” value (HeLa cell membranes) was 93%.
